Data on ten compounds can be found in ChEMBL document CHEMBL1201862, “PubChem BioAssay data set” (2004).

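In this assay, cells in 96-well plates receive the compound at five concentrations for 48 hours. Endpoints are linearly interpolated between the surrounding concentrations. At the GI50, growth is halved.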 Calls of active or inactive are those of the source. No stated cut-off is given here; in the data, active = GI50 up to about 1.1 µM and inactive = higher. Some results are limits rather than exact numbers.

Some test systems named below: UACC-257; OVCAR-5; HCT-116; SK-MEL-5; SN12C; MOLT-4; COLO 205; MCF7; EKVX; NCI-H460; OVCAR-8; CAKI-1; HOP-92; HCT-15; MDA-MB-435; HL-60; SNB-75; SNB-19; NCI-H226; RXF 393.
Common to all, as to test: inhibition of tumour cell growth, NCI panel, 48 h

Regarding `COc1cc(C[C@@]2(C)[C@@H]3CCC[C@H](CO)[C@@]3(C)CC[C@@H]2C)c(Cl)c(OC)c1`, the GI50 in the assay on UACC-257 was 18.7 µM (inactive); with OVCAR-5, 18.3 µM (inactive); in the assay with HCT-116 it was 12.2 µM (inactive); in the assay on SK-MEL-5, 17 µM (inactive); in the assay on SN12C, 15.8 µM (inactive); in the assay with MOLT-4 it was 12.1 µM (inactive). Further, the GI50 in the assay on COLO 205 was 15.3 µM (inactive); with MCF7 it was 15.5 µM (inactive); with EKVX, 14.3 µM (inactive); in the assay with NCI-H460, 16.8 µM (inactive); with OVCAR-8, 16 µM (inactive); with CAKI-1 it was 16.2 µM (inactive). Moreover, the GI50 in the assay on HOP-92 was 14.5 µM (inactive); in the assay on HCT-15, 16.7 µM; in the assay with MDA-MB-435, 13.7 µM (inactive); in the assay on HL-60 it was 17.6 µM (inactive); with SNB-75, 18 µM (inactive); in the assay on SNB-19, 18.6 µM (inactive). For the same compound, the GI50 was 15.8 µM (inactive) in the assay with NCI-H226 and 11.6 µM (inactive) with RXF 393.

For `O=C1c2ccccc2C(=O)N1c1ccc(Cc2ccc(N3C(=O)c4ccccc4C3=O)cc2)cc1`, the GI50 in the assay with UACC-257 is > 100 µM (inactive); with OVCAR-5 it was > 100 µM (inactive); in the assay with HCT-116, > 100 µM (inactive); in the assay on SK-MEL-5, > 100 µM (inactive); in the assay on SN12C, > 100 µM (inactive); in the assay with MOLT-4, 3.02 µM (inactive). Also, the GI50 with COLO 205, with MCF7, in the assay on EKVX, in the assay with NCI-H460, in the assay on OVCAR-8 and with CAKI-1 was > 100 µM (inactive) throughout. Moreover, the GI50 in the assay on HOP-92 was > 100 µM (inactive); in the assay with HCT-15, above 100 µM; with MDA-MB-435, > 100 µM (inactive); in the assay on HL-60, < 0.01 µM (active); in the assay on SNB-75, > 84.5 µM (inactive); in the assay with SNB-19 it was > 100 µM (inactive). Further, the GI50 with NCI-H226 and in the assay with RXF 393 was > 100 µM (inactive) in each case.

On to `O=C1C(c2ccc([N+](=O)[O-])cc2)=C(Cl)C(=O)c2c(O)cccc21`, for which the GI50 in the assay on UACC-257 was 18.4 µM (inactive); with OVCAR-5 it was 40.7 µM (inactive); in the assay on HCT-116 it was 27.9 µM (inactive); in the assay on SK-MEL-5, 23.4 µM (inactive); in the assay on SN12C, 22.3 µM (inactive); in the assay with MOLT-4 it was 3.66 µM (inactive). For the same compound, the GI50 was 17.3 µM (inactive) with COLO 205; 18.8 µM (inactive) in the assay with MCF7; 20.5 µM (inactive) in the assay on EKVX; 52.8 µM (inactive) in the assay with NCI-H460; 27.5 µM (inactive) with OVCAR-8; 23.7 µM (inactive) with CAKI-1. Further, the GI50 is 19 µM (inactive) in the assay on HOP-92; 25.5 µM in the assay with HCT-15; 17.7 µM (inactive) in the assay with MDA-MB-435; 4.12 µM (inactive) in the assay with HL-60; 35.3 µM (inactive) in the assay with SNB-75; 22.5 µM (inactive) in the assay on SNB-19. Further, the figures for the GI50 in the assay with NCI-H226 and in the assay with RXF 393 were > 43.2 µM (inactive) and 14.7 µM (inactive), respectively.

Turning to `CC(C)NC(=O)OCc1c(COC(=O)NC(C)C)n(C)c2c1ccc1sccc12`, the GI50 is 15.8 µM (inactive) in the assay on UACC-257; 30.6 µM (inactive) in the assay with OVCAR-5; 11.1 µM (inactive) with HCT-116; 9.29 µM (inactive) in the assay on SK-MEL-5; 15.9 µM (inactive) in the assay on SN12C; 10.3 µM (inactive) in the assay with MOLT-4. In addition, the GI50 with COLO 205 was 13.6 µM (inactive); in the assay on MCF7 it was 13.5 µM (inactive); in the assay with EKVX it was 11.2 µM (inactive); in the assay on NCI-H460, 5.33 µM (inactive); with OVCAR-8 it was > 100 µM (inactive); in the assay on CAKI-1 it was 4.8 µM (inactive). For the same compound, the GI50 in the assay on HOP-92 was 4.9 µM (inactive); in the assay with HCT-15, 16.9 µM; in the assay with MDA-MB-435 it was 13.2 µM (inactive); with HL-60, > 100 µM (inactive); with SNB-75, 14.4 µM (inactive); with SNB-19, 20.8 µM (inactive). Also, the GI50 with NCI-H226 is 2.67 µM (inactive); with RXF 393, 12.2 µM (inactive).

For `CSC(=S)OC1CC(n2cnc3c(NC(=O)c4ccccc4)ncnc32)OC1CO[Si](C)(C)C(C)(C)C` (stereo not given), the GI50 in the assay with UACC-257 is 14.7 µM (inactive); in the assay on OVCAR-5 it was 49.4 µM (inactive); with HCT-116 it was 7.82 µM (inactive); with SK-MEL-5, 5.45 µM (inactive); with SN12C, 14.4 µM (inactive); with MOLT-4, 2.03 µM (inactive). The GI50 was 5.85 µM (inactive) in the assay on COLO 205; 8.05 µM (inactive) in the assay with MCF7; 25.1 µM (inactive) in the assay with EKVX; 11.1 µM (inactive) in the assay on NCI-H460; 13.3 µM (inactive) with OVCAR-8; > 46.5 µM (inactive) in the assay with CAKI-1. Also, the GI50 with HOP-92 is 13.9 µM (inactive); with HCT-15, 13.2 µM; in the assay with MDA-MB-435, 6.12 µM (inactive); in the assay with HL-60 it was 2.84 µM (inactive); with SNB-75 it was 34.1 µM (inactive); with SNB-19, 36.7 µM (inactive). The GI50 is 14.2 µM (inactive) with NCI-H226 and 4.35 µM (inactive) in the assay with RXF 393.

As to `CCC1(C(=O)OC(C)(C)C)OC12C(C)CCCC2C` (stereo not given), the GI50 with UACC-257 is 31 µM (inactive); in the assay with OVCAR-5 it was > 100 µM (inactive); with HCT-116 it was 52.8 µM (inactive); in the assay on SK-MEL-5 it was 33.3 µM (inactive); with SN12C it was 62.1 µM (inactive); with MOLT-4 it was 18.7 µM (inactive). Further, the GI50 with COLO 205 was 23.9 µM (inactive); with MCF7 it was 24.3 µM (inactive); with EKVX, 63.7 µM (inactive); with NCI-H460 it was 31.9 µM (inactive); in the assay on OVCAR-8 it was 78.7 µM (inactive); with CAKI-1, 33.7 µM (inactive). The GI50 with HOP-92 is 34.2 µM (inactive); in the assay on HCT-15, 36 µM; with MDA-MB-435, 41.2 µM (inactive); in the assay with HL-60, 17.8 µM (inactive); with SNB-75, 32.9 µM (inactive); with SNB-19, 48.9 µM (inactive). Moreover, the GI50 was 45 µM (inactive) in the assay with NCI-H226 and 19.8 µM (inactive) in the assay on RXF 393.

For `O=c1[nH]c2ccsc2c(=O)n1COCc1ccccc1`, the GI50 in the assay with UACC-257, with OVCAR-5, in the assay with HCT-116, in the assay on SK-MEL-5, in the assay with SN12C and in the assay with MOLT-4 was > 100 µM (inactive) each time. In addition, the GI50 in the assay with COLO 205, in the assay on MCF7, in the assay on EKVX, with NCI-H460, in the assay on OVCAR-8 and with CAKI-1 was > 100 µM (inactive) in each case. The GI50 in the assay on HOP-92 is 79.8 µM (inactive); in the assay on HCT-15, above 100 µM; in the assay with MDA-MB-435, > 100 µM (inactive); with HL-60, > 100 µM (inactive); in the assay on SNB-75, > 100 µM (inactive); in the assay on SNB-19 it was > 100 µM (inactive). Also, the GI50 with NCI-H226 and with RXF 393 was > 100 µM (inactive) each time.

`COC(=O)CC1CN(C(=O)OCc2ccccc2)C(C)(C)O1` (stereo not given): the GI50 was > 100 µM (inactive) with UACC-257; > 100 µM (inactive) with OVCAR-5; > 100 µM (inactive) with HCT-116; 44.6 µM (inactive) in the assay with SK-MEL-5; > 100 µM (inactive) in the assay with SN12C; 80.2 µM (inactive) with MOLT-4. The GI50 with COLO 205 was > 100 µM (inactive); in the assay with MCF7, > 100 µM (inactive); in the assay on EKVX, 35.2 µM (inactive); in the assay with NCI-H460 it was > 100 µM (inactive); with OVCAR-8 it was > 100 µM (inactive); in the assay on CAKI-1, > 100 µM (inactive). For the same compound, the GI50 with HOP-92 was 94.6 µM (inactive); with HCT-15, above 100 µM; in the assay with MDA-MB-435, > 100 µM (inactive); in the assay on HL-60, 89.9 µM (inactive); in the assay on SNB-75, 3.3 µM (inactive); with SNB-19, 7.08 µM (inactive). In addition, the GI50 in the assay with NCI-H226 was 2 µM (inactive); with RXF 393, > 100 µM (inactive).

`C/C(=C/CO[Si](C)(C)C(C)(C)C)C(=O)N(C)c1ccccc1I`: the GI50 is 13.3 µM (inactive) in the assay with UACC-257; 14.2 µM (inactive) with OVCAR-5; 13 µM (inactive) with HCT-116; 15.4 µM (inactive) with SK-MEL-5; 17.2 µM (inactive) in the assay with SN12C; 18.2 µM (inactive) with MOLT-4. Also, the GI50 with COLO 205 was 18.5 µM (inactive); in the assay on MCF7, 16.9 µM (inactive); with EKVX it was 15 µM (inactive); with NCI-H460, 14.7 µM (inactive); with OVCAR-8, 16.9 µM (inactive); in the assay on CAKI-1 it was 15.6 µM (inactive). In addition, the GI50 is 10.5 µM (inactive) in the assay on HOP-92; 18.6 µM in the assay with HCT-15; 17.2 µM (inactive) in the assay with MDA-MB-435; 12.2 µM (inactive) with HL-60; 19.1 µM (inactive) in the assay with SNB-75; 16.6 µM (inactive) in the assay on SNB-19. Further, the GI50 was 16.4 µM (inactive) with NCI-H226 and 16.6 µM (inactive) in the assay with RXF 393.

As to `CN(C)CCCNC(=O)c1cn2c(ccc3sc4ccccc4c(=O)c32)n1`, the GI50 in the assay on UACC-257 was 15.1 µM (inactive); in the assay on OVCAR-5, 10.6 µM (inactive); in the assay with HCT-116, 1.53 µM (inactive); in the assay with SK-MEL-5 it was 1.55 µM (inactive); in the assay on SN12C, 4.56 µM (inactive); in the assay on MOLT-4, 0.738 µM (active). Besides, the GI50 with COLO 205 is 3.77 µM (inactive); in the assay with MCF7 it was 3.73 µM (inactive); with EKVX, 14.4 µM (inactive); in the assay on NCI-H460, 1.13 µM (inactive); with OVCAR-8 it was 4.85 µM (inactive); in the assay on CAKI-1, 3.28 µM (inactive). In addition, the GI50 in the assay on HOP-92 was 2.15 µM (inactive); in the assay on HCT-15 it was 2.2 µM; in the assay on MDA-MB-435, 13.6 µM (inactive); in the assay with HL-60 it was 3.6 µM (inactive); in the assay on SNB-75, 14.3 µM (inactive); with SNB-19, 15.1 µM (inactive). Moreover, the GI50 with NCI-H226 was 17.3 µM (inactive); in the assay with RXF 393, 5.94 µM (inactive).
